Patent US20250353825A1, “CANNABICYCLOL DERIVATIVES AND PREPARATION METHODS THEREOF” (priority 2023, published 2025)
≈ marks a conversion by molar mass, not a printed value.

How the values were obtained:
Assay type in all cases: cell-based
GSC-12 [1] = assay: MTS cell viability assay, GSC-12; conditions: GSC12; Table 6, tumor stem cell, 72 hours; read-out: IC50 against GSC-12
Experimental: (§1) Primary viability screening: (1) the synthesized compounds 3a to 13d were respectively dissolved in DMSO to prepare a 40 μg/mL cannabicyclol and cannabicyclol derivative solutions.
(§2) (2) A control group: a 200 μL DMSO solvent.
(§3) (3) The solutions of compounds 3a to 13d were diluted in a twofold gradient to obtain cannabicyclol and cannabicyclol derivative solutions at concentrations of 40 μg/mL, 20 μg/mL, 10 μg/mL, 5 μg/mL, 2.5 μg/mL, 1.25 μg/mL, and 0.625 μg/mL, and 0.3125 μg/mL, respectively.
(§4) (4) Three glioblastoma stem cells (GSC-3, GSC-12, and GSC-18), three pancreatic cancer cell-derived stem cells (PANC-1-CSC, BXPC-3-CSC, and ASPC1-CSC), three liver cancer cell-derived stem cells (HepG2-CSC, MHCC97H-CSC, and SMMC7721-CSC), HEK-293T cells, 16 tumor cells (U251, U87, T98G, PANC1, BXPC3, ASPC1, HepG2, MHCC97H, SMMC7721, PC3, SKOV3, MDA-MB231, A549, HCT116, HEC-1B, MKN28), and differentiated glioblastoma stem cells (GSC-3diff and GSC-12diff) derived from GSC-3 and GSC-12 (all of the cells were provided by the Laboratory of Tumor Animal Model Preparation and Application Research, West China Hospital, Sichuan University) were inoculated into a 96-well plate at a concentration of 2×10^4 cells/well, and 100 μL of culture medium was then added to each well; […]
(§5) (10) The absorbance value at 490 nm was measured on an enzyme labeling apparatus, and the IC50 value was calculated.

ASPC1 = assay: MTS cell viability assay, ASPC1; conditions: Homo sapiens, Table 7, 72 hours, read-out: IC50 against ASPC1
Experimental: as §1, §2, §3, §4, §5

GSC-3 (3#-GSC) = assay: MTS cell viability assay, glioblastoma stem cells GSC-3 (3#-GSC)
Summary of the method: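 2×10^4 cells/well, 24 h attach; cmpd 40→0.3125 μg/mL (2-fold), 72 h, 37° C/5% CO2, n=3; MTS 2 h; OD490; IC50.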

GSC-3 = assay: Soft agar colony (clone) formation, GSC-3; conditions: crystal violet, FIG. 4, compound 3a 0, 5 and 5 [sic] μg/mL
Experimental: (§6) […] of low-melting-point agarose was dissolved in 12.5 mL of ddH2O to prepare a 3.2% low-melting-point agarose gel. The low-melting-point agarose gel was sterilized by autoclaving at 121° C. and 0.12 MPa for 20 minutes. After sterilization, the low-melting-point agarose gel was maintained at 60° C. in a drying oven for further use.
(§7) 1.75 mL of 3.2% sterile low-melting-point agarose gel was taken, 5.25 mL of the corresponding complete medium was added, and the two were mixed thoroughly using a pipette to prepare a base gel at a concentration of 0.8%.
(§8) 1 mL of the base gel was added to each well of a 6-well plate, ensuring that the base gel evenly covered the bottom of each well. The plate was placed at 4° C. for 5 minutes to allow the gel to solidify. After the gel had fully solidified, the plate was warmed at 37° C. for 5 minutes.
(§9) 6 cells/cell lines (U251, SMMC7721, GSC-3, GSC-12, SMMC7721-CSC, and HepG2-CSC) were individually digested with 1× trypsin for 3 minutes. The corresponding complete culture medium (same as in the application example 1) was added to terminate the digestion. Cells were centrifuged at 1000 rpm for 3 minutes, and the cells were collected and counted. A total of 5×10^3 cells were added to each well, each group was set up with three replicates. […]

GSC-12 [2] = assay: Soft agar colony (clone) formation, GSC-12; conditions: crystal violet, FIG. 4, compound 3a 0, 5 and 5 [sic] μg/mL
Experimental: as §6, §7, §8, §9

[3] = system: liver cancer carcinoma cell line SMMC7721; assay: Soft agar colony (clone) formation, SMMC7721; conditions: crystal violet, FIG. 4, compound 3a 0, 5 and 5 [sic] μg/mL
Experimental: as §6, §7, §8, §9

[4] = system: HEK-293T, GSC-3diff, GSC-12diff and 16 tumor cells; assay: MTS cell viability assay, summary over HEK-293T, GSC-3diff, GSC-12diff and 16 tumor cells; conditions: summary of Table 7 in words
Experimental: as §1, §2, §3, §4, §5

GSC-18 = assay: MTS cell viability assay, GSC-18; conditions: GSC18; Table 6, tumor stem cell, 72 hours; read-out: IC50 against GSC-18
Experimental: as §1, §2, §3, §4, §5

HCT116 = assay: MTS cell viability assay, HCT116; conditions: Homo sapiens, HCT-116; Table 7, 72 hours; read-out: IC50 against HCT116
Experimental: as §1, §2, §3, §4, §5

U251 = assay: MTS cell viability assay, U251
Summary of the method: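 Viability was measured by MTS (2 h, A490) after cells had been treated for 72 h at 37° C with compound concentrations of 40 to 0.3125 μg/mL in triplicate, with a DMSO control; IC50 was calculated from these readings.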

[5] = primary viability screening, 72 hours, MTS, test concentration not stated

CCCCCc1cc(O)c2c(c1)OC1(C)CCC3C1C2C3(C)C (stereo not shown) [Compound 3a, cannabicyclol]
IC50 (GSC-12 [1]): 8.03 µg/mL (≈ 25.5 µM)
IC50 (ASPC1): > 40 µg/mL
IC50 (GSC-3 (3#-GSC); GSC-3, 72 h, read-out: IC50 against GSC-3): 3.85 µg/mL (≈ 12.2 µM)
selective anti-glioma stem cell viability (GSC-3 (3#-GSC); judged in words from preliminary viability screening against 3#-GSC, 293T and U251): a certain degree of selective anti-glioma stem cell viability
Cell viability in 3#-GSC (%) (GSC-3 (3#-GSC); [5]): 20%
colony formation of GSC-3 (GSC-3): significantly inhibited
colony formation of GSC-12 (GSC-12 [2]): significantly inhibited
colony formation of SMMC7721 [3]: significantly inhibited
inhibitory effects on HEK-293T, GSC-3diff, GSC-12diff and the 16 tumor cells [4]: no significant inhibitory effects
IC50 (GSC-18): 6.4 µg/mL (≈ 20.4 µM)
IC50 (HCT116): > 40 µg/mL
IC50 (U251; Homo sapiens, U-251, 72 h, read-out: IC50 against U251): > 40 µg/mL
Cell viability in U251 (%) (U251; [5]): 54%
